According to US20110151018A1, “METHODS OF INSECT CONTROL” (BRANDEIS UNIVERSITY, priority 2008, published 2011):

How the values were obtained:
D. melanogaster flies [1] = assay: Proboscis extension response (PER) assay, solution contact with labellum; format: in vivo, Drosophila melanogaster
Source text: Proboscis extension response (PER) assay: As reactive electrophiles are commonly encountered as defensive agents present in food sources, we also examined AITC sensing in the context of fly feeding. Flies aged two to seven days were starved on wet Kim wipes overnight, knocked out on ice, and glued (Elmer's glue) by their wings on a glass slide. Flies recovered in a humidified chamber at least for 2 hrs at room temperature prior to assay. At the beginning of PER assay, the fly was satiated with water. […] When the proboscis was extended and maintained the contact for 2-3 sec with the presented food, it was scored as 1. If the contact is only brief or proboscis stuttered on the tastant, 0.5 was given as the score. When the proboscis never made contact within 5 sec, 0 was given. Each fly was offered five times per experiment, and between offerings water was given to satiation. As AITC was always accepted on first offering, frequency of PER was calculated as a fraction obtained from the […] offerings (sum of four scores divided by 4). For leg only PER assays, the procedures are same as above except that the flies tested were not allowed to contact with the offered food with proboscis, with either 12% sucrose or a mixture of 2 mM AITC/12% sucrose was offered ten times.

dTRPA1 [2] = molecular target: T1, dTRPA1 (Drosophila melanogaster, UniProt Q7Z020); assay: Agonist-evoked dTRPA1 currents, two-electrode voltage clamping on Xenopus laevis oocytes; format: cell-based; details: for activation of wild-type dTRPA1 channel currents: 100 μM, applied 60-80 sec, currents at -60 and +60 mV
T1 sequence (Q7Z020 1-1197): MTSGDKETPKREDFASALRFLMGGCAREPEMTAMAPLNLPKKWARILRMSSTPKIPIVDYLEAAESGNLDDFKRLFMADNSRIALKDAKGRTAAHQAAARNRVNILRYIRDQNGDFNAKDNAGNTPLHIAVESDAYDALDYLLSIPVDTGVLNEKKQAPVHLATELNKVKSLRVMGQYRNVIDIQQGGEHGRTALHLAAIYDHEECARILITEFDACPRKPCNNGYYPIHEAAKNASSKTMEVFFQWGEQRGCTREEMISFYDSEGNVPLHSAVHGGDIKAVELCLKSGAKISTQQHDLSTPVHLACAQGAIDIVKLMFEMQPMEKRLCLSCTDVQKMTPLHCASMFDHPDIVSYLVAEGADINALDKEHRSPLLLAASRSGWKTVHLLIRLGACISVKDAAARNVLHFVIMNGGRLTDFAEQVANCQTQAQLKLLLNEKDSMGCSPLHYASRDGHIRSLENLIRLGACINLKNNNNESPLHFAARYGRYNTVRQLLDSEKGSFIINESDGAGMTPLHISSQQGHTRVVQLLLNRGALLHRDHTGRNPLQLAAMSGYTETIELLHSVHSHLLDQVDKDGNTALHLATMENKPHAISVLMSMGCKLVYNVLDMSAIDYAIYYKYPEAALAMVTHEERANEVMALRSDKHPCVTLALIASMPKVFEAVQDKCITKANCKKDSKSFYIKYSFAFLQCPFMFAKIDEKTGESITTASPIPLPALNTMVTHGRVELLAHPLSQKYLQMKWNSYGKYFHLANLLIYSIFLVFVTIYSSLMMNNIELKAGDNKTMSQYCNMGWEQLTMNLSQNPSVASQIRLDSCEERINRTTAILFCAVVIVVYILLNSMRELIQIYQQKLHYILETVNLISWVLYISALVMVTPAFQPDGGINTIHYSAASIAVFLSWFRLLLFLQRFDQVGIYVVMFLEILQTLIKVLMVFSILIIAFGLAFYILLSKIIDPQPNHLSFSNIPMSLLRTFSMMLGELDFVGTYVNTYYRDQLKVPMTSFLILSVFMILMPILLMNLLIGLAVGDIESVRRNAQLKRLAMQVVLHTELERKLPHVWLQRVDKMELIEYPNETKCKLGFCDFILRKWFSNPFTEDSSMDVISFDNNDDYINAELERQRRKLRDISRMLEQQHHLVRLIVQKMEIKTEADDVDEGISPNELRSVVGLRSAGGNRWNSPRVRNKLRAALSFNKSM
Description: (§1) Two-electrode voltage clamping on Xenopus laevis oocytes: Agonist-evoked dTRPA1 currents were recorded as previously described (52), with the following modifications. Agonists of interest were added to the oocyte perfusion buffer (96 mM NaCl, 1 mM MgCl2, 4 mM KCl, and 5 mM HEPES, pH 7.6). Voltage was initially held at −60 mV, and each 300-ms voltage ramp (−60 mV to 60 mV) per sec was applied to dTRPA1- or AgTRPA1-expressing oocytes during perfusion of agonist-containing buffer. Typical resting membrane potentials of oocytes used were between −25 and −60 mV.

Drosophila melanogaster = details: cited from earlier work
[3] = tested on: motor neurons expressing dTRPA1; assay: Larval neuromuscular junction electrophysiology (EJPs in muscle 6); format: cell-based, Drosophila melanogaster
Source text: Larval neuromuscular junction electrophysiology: dTRPA1 was expressed in larval motor neurons using OK371-GAL4, a driver specific for glutamatergic neurons (Aberle et al., 2006) as described (61). In all preparations, the ventral ganglion was dissected away, leaving only motor axons and terminals. Larval muscle 6 (m6) was impaled with a sharp electrode (10-20 MO) containing 3M KCl. Resting membrane potentials were typically between −40 and −50 mV. Saline was perfused over the preparation, then increasing concentrations of cinnemaldehyde applied using a custom built gravity perfusion system. EJP frequency was measured-30 sec after application of each concentration using analysis scripts in Spike 2 (Cambridge Electronic Design, Cambridge, UK).

agTRPA1 [4] = assay: Warmth-evoked currents in agTRPA1-expressing Xenopus laevis oocytes (two electrode voltage clamp); format: cell-based, Anopheles gambiae; details: 50 micromolar Ruthenium Red, -60 mV
Description: (§2) Oocyte-positive Xenopus laevis females were obtained from Nasco (Ft. Atkinson, Wis.), and maintained at ˜19° C. with 12 h/12 h dark/light cycles. Ovaries were surgically isolated, and treated with 1.5 mg/ml of collagenase type II (Worthington, Lakewood, N.J.) for 90 min, and individual oocytes were defolliculated with a pair of forceps. cRNA was transcribed by mMessage mMachine T3 kit (Ambion, Austin, Tex.) from each cDNA construct, and 50 nl aliquot per oocyte was injected using an automatic Drummond microinjector. (agTRPA1 sequence deposited as Genbank #108 1610.) Membrane potential was maintained at −60 mV by two electrode voltage clamping (TEVC) during warm-activated current recording. Resistance of pulled glass capillary electrodes filled with 3 M KCl was between 0.5 and 1.5 MΩ. Typical resting membrane potentials of oocytes used for current recording were between −25 and -60 mV. Current was recorded at 2 kHz and filtered to 1 kHz with the output filter of the amplifier (OC-725B, Warner instruments, Hamden, Conn.). […] Each voltage step lasted 100 ms following 10 ms holding at −60 mV, and the recorded current in the last 40 ms was averaged to determine the current amplitude at a given voltage.

dTRPA1 [5] = molecular target: T1, dTRPA1; assay: Warmth-evoked currents in dTRPA1-expressing Xenopus laevis oocytes (two electrode voltage clamp); format: cell-based; details: 50 micromolar Ruthenium Red, -60 mV
Description: as §2

D. melanogaster flies [6] = assay: Leg only PER assay; format: in vivo, Drosophila melanogaster; details: 2 mM AITC/12% sucrose
Source text: Proboscis extension response (PER) assay: As reactive electrophiles are commonly encountered as defensive agents present in food sources, we also examined AITC sensing in the context of fly feeding. Flies aged two to seven days were starved on wet Kim wipes overnight, knocked out on ice, and glued (Elmer's glue) by their wings on a glass slide. Flies recovered in a humidified chamber at least for 2 hrs at room temperature prior to assay. At the beginning of PER assay, the fly was satiated with water. Next, solution containing tastants was presented to the fly as a liquid ball on a pipette tip, touching the forelegs only. When the proboscis was extended and maintained the contact for 2-3 sec with the presented food, it was scored as 1. If the contact is only brief or proboscis stuttered on the tastant, 0.5 was given as the score. When the proboscis never made contact within 5 sec, 0 was given. Each fly was offered five times per experiment, and between offerings water was given to satiation. As AITC was always accepted on first offering, frequency of PER was calculated as a fraction obtained from the […] offerings (sum of four scores divided by 4). […]

flies = assay: Ingestion of AITC-laden food over a 60 minute period; format: in vivo, Drosophila; details: well before the end of the 60 minute assay
D. melanogaster adults = assay: Vapor avoidance assay (choice between AITC tube and DMSO tube); format: in vivo, Drosophila melanogaster; details: dTrpA1 loss-of-function mutants, P<0.0001
Description: Vapor avoidance assay: One to three day-old flies were collected, knocked out by CO2, and kept on a fresh food at least 24 hrs before use. Choice apparatus was as previously described (3). ˜200 mM AITC was prepared daily by diluting 1 part of 99% AITC (Sigma) in 49 parts of DMSO. 1 microliter of diluted AITC was placed on the tip of 16-gauge needle (plugged by bending), inserted in bottom of a capped 14-ml polypropylene tube and allowed to diffuse for 2 min prior to use. 1 microliter of DMSO alone was placed on a needle tip inserted into the other 14-ml tube. During diffusion period, flies were transferred to the apparatus held within the fly elevator. After diffusion period, AITC tube was uncapped and inserted one opening of the choice chamber, other opening contained vehicle only tube. […] AITC and vehicle only sides were alternated to offset any bias caused by possible asymmetric condition. Avoidance index was calculated by subtracting the fraction of flies in AITC tube from fraction in vehicle alone tube.

dTRPA1-2C = assay: AITC-evoked currents of dTRPA1-2C mutant channel in oocytes; format: cell-based, Drosophila melanogaster; details: 0.1 and 0.5 mM AITC normalized to 1.0 mM, -60 mV
Description: as §1
Substitutions of cysteine/lysine residues in dTrpA1 were made by swapping a region of wild type cDNA sequence including codons of cysteine or lysine with mutated cassettes. A pair of mutually complemetary oligonucleotide primers with a desired mutation were prepared, and each of them was paired with upstream or downstream primers for the first two PCR reactions. The resulting two PCR fragments overlap in the mutant primer-annealing region that contains the replaced codons, and served as template for the second PCR reaction amplified only with the upstream and down stream primers. The upstream and down stream primers were designed to be just outside of specific restriction endonuclease target sites that were used to clone the second PCR products back in the wild type dTrpA1 cDNA background sequence. […]

agTRPA1 [7] = assay: Agonist-evoked agTRPA1 currents, two-electrode voltage clamping on Xenopus laevis oocytes; format: cell-based, Anopheles gambiae; details: 100 μM
Description: as §1

## Cn1c(=O)c2c(ncn2C)n(C)c1=O [caffeine]
D. melanogaster flies [1]; caffeine-mediated
  inhibition of the PER, dTrpA1 mutants versus controls: indistinguishable

## C=CC=O [acrolein]
dTRPA1 [2]
  activation of wild-type dTRPA1 channel currents: robustly activated
Drosophila melanogaster
  toxicity and mutagenicity to the fruit fly: toxic and mutagenic

## O=CC=Cc1ccccc1 [cinnamaldehyde]
dTRPA1 [2]
  activation of wild-type dTRPA1 channel currents: robustly activated
[3]; genetic controls without dTRPA1
  response of control motor neurons: unresponsive
[3]; ok371-Gal4 driven dTRPA1, 3rd instar larvae
  activation of motor neurons expressing dTRPA1 (EJPs in target muscles): robustly activated

## N.N.N.N.N.N.N.N.N.N.N.N.N.N.[Cl-].[Cl-].[Cl-].[Cl-].[Cl-].[Cl-].[O-2].[O-2].[Ru+3].[Ru+3].[Ru+4] [Ruthenium Red, ruthenium red]
dTRPA1 [2]; 100 μM RR
  inhibition of electrophile-evoked dTRPA1 currents: inhibited
agTRPA1 [4]
  inhibition of warmth-activated agTRPA1 currents: inhibited
dTRPA1 [5]
  inhibition of warmth-activated dTRPA1 currents: inhibited

## C=CCN=C=S [AITC, allyl isothiocyanate]
D. melanogaster flies [6]
  effect on PER elicited by contact of 12% sucrose solution with the legs: no detectable effects
dTRPA1 [2]
  activation of wild-type dTRPA1 channel currents: robustly activated
Drosophila melanogaster
  toxicity and mutagenicity to the fruit fly: toxic and mutagenic
flies
  incapacitation of flies on exposure: incapacitated all flies
D. melanogaster adults
  AITC vapor avoidance compared to control: significantly reduced AITC avoidance
dTRPA1-2C
  AITC sensitivity of dTRPA1-2C compared to wild type dTRPA1: significantly decreased AITC sensitivity
D. melanogaster flies [1]; 12% sucrose containing 2 mM AITC, labellum
  PER upon the first offering: All flies also exhibited a PER
D. melanogaster flies [1]; control flies, 12% sucrose containing 2 mM AITC, labellum (sucrose alone 95%)
  PER triggered by the four subsequent offerings: 33%
D. melanogaster flies [1]; dTrpA1 mutants, sucrose containing AITC
  PER in response to multiple offerings: no reduction in PER
agTRPA1 [7]
  activation of agTRPA1 channel currents: robust responses
